Experimental data from patent US20100129289A1, “COMPOSITIONS AND METHODS FOR THE DETECTION OF VULNERABLE PLAQUE” (THE OHIO STATE UNIVERSITY RESEARCH FOUNDATION, priority 2006, published 2010).
Ends that are not written are not given here.

Experiments:
[1] = test system: atherosclerotic lesion endothelium of ApoE knockout mice; details: mouse; cited from earlier work
[2] = test system: human atherosclerotic lesions; details: cited from earlier work
[3] = test system: WHHL rabbit aortic tissue (intima); test: Resected WHHL rabbit aortic tissue peptide binding assay; details: Exp217 (FIG. 19); five to seven tissue samples per peptide
Experimental: Experiments were performed to determine if the synthesized peptides could bind to the intima of the WHHL (diseased) rabbits but not to the NZW (control) rabbits. The following procedure is shown schematically in FIG. 2. The animals were anesthetized, injected with 0.7-1.0 mL heparin, and perfused with 200-300 mL Hanks buffered salt solution containing 1% BSA. A segment of the aorta comprising the aortic arch to the bifurcation of the aorta in the lower abdomen was removed and placed in a buffer solution of Hanks w/1% BSA and 1% protease inhibitor cocktail (Sigma, P8340). The aorta segments were opened longitudinally and sliced into individual pieces approximately 1-2 mm^2 each. These pieces were then placed into tubes containing individual peptides at a concentration of 5 μg/mL in the same buffer solution described above.
The tissue sections were incubated with individual peptides for 45-60 minutes at room temperature. Samples were washed 3× with PBS followed by incubation with SA-HRP or anti-FLAG-HRP in the same buffer for 45-60 minutes at room temperature. After another 3× washing, the samples were incubated with DAB for 30 minutes in the same buffer. After a final round of washing, tissue samples were imaged with a dissecting microscope and analyzed for the presence of brown staining on the endothelial surface. […] Some tissue sections received no peptide incubation; rather they were exposed only to SA-HRP or anti-FLAG-HRP as a control.

CAPGPSKSC (cysteine pairing not given here; also: N-terminal biotin or C-terminal FLAG, which one not given here) [Peptide 12]
binding to atherosclerotic lesion endothelium of ApoE knockout mice in vivo [1]: bound | binding to human atherosclerotic lesions ex vivo [2]: bound | positive binding / staining on WHHL tissue samples [3]: stained
